The text below walks through data of patent US12070457B2, “Substituted pyridines, pyridazines, pyrimidines, and 1,2,3-triazines as bruton's tyrosine kinase inhibitors” (HUTCHISON MEDIPHARMA LIMITED, priority 2020, dated 2024).

One data set addresses BTK recombinant protein (Homo sapiens (Human), UniProt Q06187). Briefly: Determination of biochemical BTK (Z'-LYTE kinase assay). The text has this:
Example 2 Determination of Biochemical BTK
1. Reagents and Materials
• BTK recombinant protein: Invitrogen, Cat #PV3363; • Z′-LYTE® kinase test kit-tyrosine 1 peptide: Invitrogen, Cat #PV3190; • 384-well low-flange black flat-bottomed polystyrene NBS microplate, no lid, no sterilization: Corning, Cat #3575; • 96-well polystyrene conical-bottomed MicroWell™ plate, sealed with a lid: Thermo Scientific™ Nunc™, Cat #277143; • Envision multi-mode plate reader: PerkinElmer; • Mixmate® shaker: Eppendorf; • TS-2102 shaking incubator: TENSUC; 2. Methods
Z′-LYTE® biochemical assay employs a fluorescence resonance energy transfer (FRET)-based, coupled-enzyme format and is based on the differential sensitivity of phosphorylated and non-phosphorylated peptides to proteolytic cleavage. Both ends of the short peptide substrate are labeled with two fluorescent groups to form a FRET paired combination. In the primary reaction (the Kinase Reaction), the kinase transfers the γ-phosphate of ATP to a single […] residue on the short peptide substrate. In the secondary reaction (the development reaction), the non-phosphorylated short peptides were recognized and cleaved by a site-specific protease (the development reagent). Phosphorylated short peptides can resist such cleavage. Cleavage of short peptides can disrupt the donor (such as coumarin) and receptor fluorophores (fluorescein) on the short peptides, while the phosphorylated short peptides can maintain FRET. The calculation method of the ratio is as follows, and the ratio of the respective emission signals generated by the donor fluorophores emitted (after excitation at 400 nm) to the receptors is calculated. Emission signal ratio=emitted light by coumarin (445 nm)/emitted light by fluorescein (520 nm). If the FRET short peptide is phosphorylated (such as no kinase inhibitor), the emitted light ratio will remain in a lower level. If the FRET short peptide is non-phosphorylated (such as kinase inhibitor), the emitted light ratio will be in a higher level. In this way, the inhibitory effects of different compound inhibitors on BTK kinase activity would be distinguished.
The experiment were carried out according to the instructions of the Z′-LYTE® kinase test kit-tyrosine 1 peptide. Reagent preparation: 1.33× kinase buffer: 5× kinase buffer was diluted with water to 1.33× kinase buffer; an enzyme solution: the kinase was dissolved in 1.33× kinase buffer with the final working concentration being 3.32 nM; a short peptide solution: a short peptide stock solution (1 mM dissolved in DMSO) was dissolved in 1.33× kinase buffer with the final working concentration being 2 μM; Z′-LYTE Tyr01 phosphorylated short peptide solution, 0.6 μl of stock solution (1 mM dissolved in DMSO) was dissolved in 149.4 μl of 1.33× kinase buffer; an ATP solution: an ATP stock solution (10 mM aqueous solution) was dissolved in 1.33× kinase buffer with the final working concentration being 32 μM; a color-developing solution: color-developing solution B was dissolved in color-developing buffer with the final working concentration being 1× color-developing solution; 4× compound preparation: the compound was diluted in 3-fold gradient concentration to finally obtain 4% DMSO aqueous solution containing different concentrations of the compound, with the final working concentration being 3000, 1000, 333.33, 111.11, 37.04, 12.35, 4.12, 1.37 nM, 8 concentration points in total.
Specific steps of the experiment: In the experiment, there were three control groups, each with 8 replicate wells, which were C1 100% inhibition group (no ATP), C2 0% inhibition group (with ATP), and C3 100% phosphorylation group, respectively. 2.5 μl of serially diluted compound was added to each well of a 384-well plate, with double replicate wells, and 4% DMSO solution was added to wells C1, C2, and C3. […]

Data set [1] in a line: Study on in vivo pharmacokinetics in mice. Set-up: species or system mouse. The note with it: for concentration at 8 h / concentration at 24 h: male, ICR, mouse. The text has this:
Example 6 Study on In Vivo Pharmacokinetics in Mice
Solutol HS15 was purchased from BASF, Germany, ethanol (anhydrous) was purchased from Nanjing Chemical Reagent Co., Ltd., physiological saline was purchased from Huayu (Wuxi) Pharmaceutical Co., Ltd., dimethyl sulfoxide (DMSO) and sodium carboxymethyl cellulose 800-1200 (CMC-Na) were purchased from Sinopharm Chemical Reagent Co., Ltd.
Preparation of ethanol/Solutol mixed solution (1:1, v/v): taking an appropriate amount of Solutol HS15 in a centrifuge tube and placing in a 37° C. water bath until dissolved, placing on the bench top to room temperature, taking 1 mL of Solutol in a centrifuge tube containing 1 mL of ethanol and mixing well to obtain the mixed solution.
Taking an appropriate amount of stock solution and placing in a blank centrifuge tube, adding an appropriate amount of ethanol/Solutol mixed solution prepared in advance, vortexing, then adding an appropriate amount of physiological saline, and mixing well until a transparent liquid.
3. Administration to Animals and Sample Collection:
Male ICR mice were purchased from Shanghai Lingchang Biotechnology Co., Ltd. 18 mice were randomly divided into intravenous administration group and intragastric administration group. The mice were fasted overnight before administration. The mice were withheld food but allowed to access water freely within 4 hours after administration, and allowed to freely access food and water after 4 hours. After anesthesia with isoflurane, blood was collected from the retroorbital venous plexus and placing in an centrifuge tube containing anticoagulant, and the centrifuge tube was stored in an box containing wet ice until the plasma was centrifuged.
The plasma samples were pre-treated and then analyzed by liquid chromatography-tandem mass spectrometry (LC-MS/MS), the instrument model was API5500. The analytical chromatographic column was Waters XSELECT HSS T3 C18 column (50×2.1 mm, 2.5 μm). In the mobile phases, deionized water containing 0.1% formic acid and 0.1% acetonitrile was used as the aqueous phase and acetonitrile containing 0.1% formic acid was used as the organic phase. The concentrations of the compound in the samples were determined as follows. Firstly, a standard curve was established, and the peak area ratios of the compound 19 to the internal standard in the standard curve were used as indexes. The theoretical concentrations of compound 19 and the peak area ratios of compound 19 to the internal standard were fitted with a quadratic regression equation to obtain the regression equation. The sample concentrations were calculated by measuring the peak area ratio of the compound of the test sample to the internal standard according to the standard curve.

Like-named read-outs stand apart in the source and are kept apart here.

Sequence of BTK recombinant protein (Q06187 whole entry): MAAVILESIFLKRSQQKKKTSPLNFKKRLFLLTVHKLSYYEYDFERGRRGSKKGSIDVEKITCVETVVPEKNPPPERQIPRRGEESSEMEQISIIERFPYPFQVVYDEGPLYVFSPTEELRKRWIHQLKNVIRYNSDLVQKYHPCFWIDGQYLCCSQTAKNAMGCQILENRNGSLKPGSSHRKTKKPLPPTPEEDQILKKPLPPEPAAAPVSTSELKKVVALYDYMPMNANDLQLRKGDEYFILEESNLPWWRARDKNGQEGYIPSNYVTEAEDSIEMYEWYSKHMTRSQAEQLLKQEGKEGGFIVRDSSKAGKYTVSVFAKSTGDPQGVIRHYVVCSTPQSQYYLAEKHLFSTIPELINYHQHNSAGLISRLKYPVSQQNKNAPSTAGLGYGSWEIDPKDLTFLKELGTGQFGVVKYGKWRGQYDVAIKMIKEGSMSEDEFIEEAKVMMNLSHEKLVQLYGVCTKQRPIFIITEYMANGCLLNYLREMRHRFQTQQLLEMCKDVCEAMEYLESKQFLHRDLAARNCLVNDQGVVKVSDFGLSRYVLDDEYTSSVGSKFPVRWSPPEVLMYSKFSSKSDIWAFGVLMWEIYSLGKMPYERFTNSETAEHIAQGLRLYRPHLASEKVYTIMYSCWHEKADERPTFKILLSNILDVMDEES

For `C[C@H]1CN(C2COC2)CCN1c1ccc(Nc2cc(-c3ccnc(-n4ccn5c6c(cc5c4=O)CC(C)(C)C6)c3CO)cn(C)c2=O)nc1` [Compound 19], the IC50 at BTK recombinant protein was 8 nM. The concentration at 8 h in data set [1] (oral, mice, intragastric, 10 mg/kg, plasma at 8 h, read-out: C8 h) stood at 555 ng/mL; in data set [1] (plasma, 10 mg/kg, oral administration in mice, 8 h, read-out: plasma concentration at 8 h), 555 ng/mL. Moreover, the concentration at 24 h in data set [1] (oral, mice, intragastric, 10 mg/kg, plasma at 24 h, read-out: C24 h) turned out to be 8.5 ng/mL; in data set [1] (plasma, 10 mg/kg, oral administration in mice, 24 h, lower limit of quantification 2.4 ng/mL, read-out: plasma concentration at 24 h), 8.5 ng/mL. In data set [1] (mice, intragastric, 10 mg/kg), the T1/2 is given as 2.7 h. For the same compound, the “plasma exposure (AUC0-∞) relative to reference GDC-0853” value in data set [1] (oral administration in mice) is given as “about 1.7 times”. Besides, in data set [1] (oral administration in mice, 8 h), the “plasma concentration at 8 h relative to GDC-0853” value is on record as “about 3.9 folds”.

The term IC50 denotes the concentration at which inhibition is half-maximal.
